The text below walks through data of patent US7745431B2, “Pharmaceutical composition of 1-(3,4-dimethoxyphenyl)-4-methyl-5-ethyl-7-methoxy-8-hydroxy-5H-2,3-benzodiazepine and uses thereof” (priority 2002, dated 2010).

pKi: −log10 of the molar value. Read-outs that look alike come from different tables or passages of the source.

The target in one assay is T1, LTB4 receptor (Cavia porcellus, UniProt H0VYV8).
T1 construct: 1.0 mg/mL of the Guinea pig spleen membrane preparation; from tissue; host or cells: guinea pig spleen membranes
Description: Inhibition of [3H]LTB4 binding, guinea pig spleen membrane assay. On the procedure: The ability of 1-(3,4-dimethoxyphenyl)-4-methyl-5-ethyl-7-methoxy-8-hydroxy-5H-2,3-benzodiazepine to inhibit [^3H]LTB4 binding to the LTB4 receptor was determined as follows using the guinea pig spleen membrane assay of Cheng et al., J. Pharmacol. Exp. Ther., 236(1), 126-132, 1986, the entire disclosure of which is incorporated herein by reference.
Reactions were carried out in a phosphate buffer (pH 7.4) containing NaCl, MgCl2, EDTA, and bacitracin. The reaction volume of 150 μL containing 1.0 mg/mL of the Guinea pig spleen membrane preparation and 1 nM [^3H]LTB4, with or without a candidate inhibitor, was incubated at 0-4° C. for 2 hours. Candidate inhibitors included the compounds listed in Table 1 and unlabeled LTB4 as a control. The reaction was terminated by rapid vacuum filtration onto glass fiber filters. The filter was washed with cold buffer, dried and placed in a scintillation vial. Radioactivity trapped onto the filters was determined and compared to control values in order to ascertain any interactions of the test compound with the LTB4 binding site.

The next assay concerns the target T2, TXA2 receptor (Homo sapiens, UniProt P21731).
T2 construct: determined via the human platelet-based assay of Hedberg et al; from tissue; host or cells: human platelets
T2 sequence (P21731 1-343): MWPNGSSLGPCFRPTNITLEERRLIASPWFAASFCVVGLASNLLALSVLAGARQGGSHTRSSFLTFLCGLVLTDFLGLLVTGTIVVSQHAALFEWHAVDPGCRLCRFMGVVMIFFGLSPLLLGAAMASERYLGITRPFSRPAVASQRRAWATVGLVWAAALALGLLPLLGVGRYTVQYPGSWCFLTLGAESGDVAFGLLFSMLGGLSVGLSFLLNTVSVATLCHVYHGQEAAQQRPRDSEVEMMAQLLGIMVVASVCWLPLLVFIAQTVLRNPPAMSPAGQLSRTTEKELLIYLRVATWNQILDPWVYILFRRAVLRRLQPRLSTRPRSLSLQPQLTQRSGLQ
Description: TXA2 binding assay, [3H]SQ 29,548, human platelet-based. Conditions: for inhibition at 10 µM: inhibition of [3H]SQ 29,548 binding, human platelets. The procedure:
The ability of 1-(3,4-dimethoxyphenyl)-4-methyl-5-ethyl-7-methoxy-8-hydroxy-5H-2,3-benzodiazepine to inhibit the binding of [^3H]SQ 29,548 (30-60 Ci/mmol) was determined via the human platelet-based assay of Hedberg et al., “Characterization of [^3H]SQ 29,548 as a High Affinity Radioligand Binding to Thromboxane A2—Receptors in Human Platelets.”, J. Pharmacol. Exp. Ther. 245: 786-792 (1988), with modifications. TXA2 is a very unstable molecule, thus a surrogate ligand of known affinity for the TXA2 receptor is required as a standard for determination of binding affinity of new potential TXA2 ligands. [^3H]SQ 29,548 is a ligand with known binding affinity for the TXA2 receptor. [^3H]SQ 29,548 has been employed as a TXA2 ligand in several published studies, is accepted as a TXA2 binding standard, and is thus useful as a standard in assessing the binding affinity of new compounds to the TXA2 receptor. See also, Armstrong, R. A., Jones, R. L., et al. “Ligand Binding to Thromboxane Receptors on Human Platelets: Correlation with Biological Activity.” Brit. Jrnl. Pharmac. 79:953-964 (1983), the entire disclosures of which are incorporated herein by reference.
Reactions were carried out in 25 mM TRIS-HCl (pH 7.4) containing 138 mM NaCl, 5 mM KCl, 5 mM MgCl2, 5.5 mM dextrose, and 2 mM EDTA at 25° C. for 60 minutes. […] The reaction was terminated by rapid vacuum filtration onto glass fiber filters. Radioactivity trapped onto the filters was determined and compared to control values in order to ascertain any interactions of test compound with the thromboxane A2 binding site.

In a further assay the test system is adenosine receptor. Briefly: Adenosine binding assay, [3H]-NECA, bovine striatal membrane. The procedure:
The ability of 1-(3,4-dimethoxyphenyl)-4-methyl-5-ethyl-7-methoxy-8-hydroxy-5H-2,3-benzodiazepine to inhibit the binding of [^3H]5′-N-ethylcarboxamidoadenosine (NECA) (15-30 Ci/mmol) was determined via the bovine striatal membrane assay of Bruns et al., “Characterization of the A2 Adenosine Receptor Labeled by [^3H]-NECA in Rat Striatal Membrane”, Pharmacology, 29: 331-346 (1986), with modifications. See also, Weir et al. “Inhibition of N6-[^3H]CHA Binding by Carbamazepine” Epilepsia, 31(5), 503-512 (1990) with modifications; and Holtzman et al., “Role of Adenosine Receptors in Caffeine Tolerance,” J. Pharmacol. & Exp. Ther., 256(1), 62-67 (1990).
Reactions were carried out in 50 mM TRIS-HCl (pH 7.7) at 25° C. for 60 minutes. The reaction was terminated by rapid vacuum filtration onto glass fiber filters. Radioactivity trapped onto the filters was determined and compared to control values in order to ascertain any interactions of test compound with the adenosine binding site.

A further assay concerns Male Swiss mice. Description: Mouse maximal electroshock test. It counts as in vivo. Conditions: for Duration of tonic seizure Mean ± SEM: i.p., about 30 min before electroshock, mice; for anticonvulsant activity: vs. vehicle. The procedure: In this model of tonic-clonic seizure activity, seizures were produced by application of an AC current via corneal electrodes. The maximal electroshock model is commonly employed to assay anticonvulsant activity. See, Swinyard et al., J. Pharmacol. Exp. Therap., 1952, 106, 319-330; the entire disclosure of which is incorporated herein by reference.
Each animal was dosed with one of:
(1) diazepam, 20 mg/kg dissolved in normal saline as a reference standard;
(2) 1-(3,4-dimethoxyphenyl)-4-methyl-5-ethyl-7-methoxy-8-hydroxy-5H-2,3-benzodiazepine at a dose of 15, 30, 45 or 60 mg/kg; dissolved in 15% DMSO, 35% PEG and 50% deionized water (vehicle); or
(3) vehicle comprising 15% DMSO, 35% PEG and 50% deionized water.
The concentrations of each of the dosed substances were normalized such that the volume of each dose was 10 mL/kg.
Approximately thirty minutes following administration of the above dose, full tonic-clonic seizures were induced in the animals by applying an AC current (50 Hz, 50 mA, 0.2 seconds) using an ECT unit 7800 (Ugo Basile, Comerio, Italy) through corneal electrodes. The appearance and duration of the induced seizures, as characterized by a tonic extension of hindlimbs past 90° were recorded. The seizure data are reproduced in Table 4 showing the seizure data as a mean with a standard error of the mean.

Assay [1] concerns mice. Conditions: cited from earlier work.
Another assay concerns rats. Conditions: cited from earlier work.
For assay [2], the system named is mice. Conditions: cited from earlier work. This is another data set of the same source.
For a further assay, the system named is central BZ receptors. Conditions: cited from earlier work.
A further assay addresses peripheral BZ receptors (Homo sapiens, UniProt P30536). Conditions: cited from earlier work.

T1 sequence (H0VYV8 1-348): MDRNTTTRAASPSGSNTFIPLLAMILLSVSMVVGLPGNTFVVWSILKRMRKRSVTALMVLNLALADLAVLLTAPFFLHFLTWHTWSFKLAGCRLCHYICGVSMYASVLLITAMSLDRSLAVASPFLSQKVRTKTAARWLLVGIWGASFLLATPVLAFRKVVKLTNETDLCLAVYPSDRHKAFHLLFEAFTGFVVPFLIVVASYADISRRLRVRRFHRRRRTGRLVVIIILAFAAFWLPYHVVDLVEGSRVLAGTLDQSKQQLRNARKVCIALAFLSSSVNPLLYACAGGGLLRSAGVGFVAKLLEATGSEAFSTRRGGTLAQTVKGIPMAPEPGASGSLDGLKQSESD
Sequence of peripheral BZ receptors (P30536 whole entry): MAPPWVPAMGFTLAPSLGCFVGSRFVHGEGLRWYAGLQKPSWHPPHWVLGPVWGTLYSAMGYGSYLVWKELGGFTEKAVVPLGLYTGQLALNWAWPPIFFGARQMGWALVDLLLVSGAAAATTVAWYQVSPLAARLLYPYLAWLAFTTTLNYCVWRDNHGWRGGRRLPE

The inhibition is the change of the read-out against control, counted positive when it falls. A higher inhibition goes with a response far below the control. Turning to `CCC1C(C)=NN=C(c2ccc(OC)c(OC)c2)c2cc(O)c(OC)cc21` (racemic) [Compound 2, 1-(3,4-dimethoxyphenyl)-4-methyl-5-ethyl-7-methoxy-8-hydroxy-5H-2,3-benzodiazepine], the inhibition at 10 µM came to 36% at LTB4 receptor and 48.3% on TXA2 receptor. The “LTB4 % inhibition @ 10 μM” value on LTB4 receptor (10 µM) turned out to be 35.96%. Also, the “Adenosine non-selective @ 10 μM (inhibition of [3H]-NECA binding)” value in the assay with adenosine receptor was determined as 61.50%. Further, the “Duration of tonic seizure Mean ± SEM” value amounted to 9.0 ± 2.5 s with Male Swiss mice (15 mg/kg), 5.5 ± 1.1 s in the assay with Male Swiss mice (30 mg/kg), 6.5 ± 1.7 s in the assay with Male Swiss mice (45 mg/kg) and 5.7 ± 1.8 s in the assay with Male Swiss mice (60 mg/kg). The anticonvulsant activity entry in the assay on Male Swiss mice (60 mg dose) was “comparable anticonvulsant activity, but fell short of statistical significance”; with Male Swiss mice (30 and 45 mg/kg doses) it was “statistically significant anticonvulsant activity”.
As to `CCC1C(C)=NN=C(c2ccc(OC)c(OC)c2)c2cc(OC)c(O)cc21` (stereo not drawn) [Compound 1, 1-(3,4-dimethoxyphenyl)-4-methyl-5-ethyl-7-hydroxy-8-methoxy-5H-2,3-benzodiazepine], the inhibition at 10 µM at LTB4 receptor came out at 20.4%; on TXA2 receptor it was 42.7%. For the same molecule, in the assay with adenosine receptor, the “Adenosine non-selective @ 10 μM (inhibition of [3H]-NECA binding)” value is on record as 6.73%. Besides, the inhibition of aggression in the assay on mice [1] is given as 0%. The inhibition of muricide in the assay on rats is 20%.
For `CCC1C(C)=NN=C(c2ccc(O)c(OC)c2)c2cc(OC)c(OC)cc21` (stereo not drawn) [Compound 3, 1-(3-methoxy-4-hydroxyphenyl)-4-methyl-5-ethyl-7,8-dimethoxy-5H-2,3-benzodiazepine], the results for the inhibition at 10 µM on LTB4 receptor and at TXA2 receptor were 49.9% and 1.98%, respectively. Besides, in the assay with adenosine receptor, the “Adenosine non-selective @ 10 μM (inhibition of [3H]-NECA binding)” value is “inactive”. Also, the inhibition of aggression in the assay with mice [1] is given as 0%. The inhibition of muricide in the assay on rats is given as 0%. Moreover, in the assay with mice [2], the narcosis-potentiating activity entry is “demonstrate narcosis-potentiating activity”.
`CCC1C(C)=NN=C(c2ccc(OC)c(O)c2)c2cc(OC)c(OC)cc21` (stereo not drawn) [Compound 4, 1-(3-hydroxy-4-methoxyphenyl)-4-methyl-5-ethyl-7,8-dimethoxy-5H-2,3-benzodiazepine]: the inhibition at 10 µM on LTB4 receptor amounted to 63.9%; at TXA2 receptor it was 25.9%. The “Adenosine non-selective @ 10 μM (inhibition of [3H]-NECA binding)” value with adenosine receptor worked out at 4.26%.
In the case of `CCC1C(C)=NN=C(c2ccc(O)c(OC)c2)c2cc(OC)c(O)cc21` (stereo not drawn) [Compound 5, 1-(3-methoxy-4-hydroxyphenyl)-4-methyl-5-ethyl-7-hydroxy-8-methoxy-5H-2,3-benzodiazepine], on LTB4 receptor, the “LTB4 % inhibition @ 10 μM” value is “inactive”. This molecule came in with an inhibition at 10 µM at TXA2 receptor of 44%. Further, the “Adenosine non-selective @ 10 μM (inhibition of [3H]-NECA binding)” value in the assay with adenosine receptor worked out at 22.40%. The inhibition of aggression with mice [1] is listed as 28.6%. In addition, in the assay with rats, the inhibition of muricide is 20%.
With `CCC1C(C)=NN=C(c2ccc(OC)c(O)c2)c2cc(OC)c(O)cc21` (stereo not drawn) [Compound 6, 1-(3-hydroxy-4-methoxyphenyl)-4-methyl-5-ethyl-7-hydroxy-8-methoxy-5H-2,3-benzodiazepine], the “LTB4 % inhibition @ 10 μM” value at LTB4 receptor is “inactive”. This molecule had an inhibition at 10 µM on TXA2 receptor of 45.7%. Also, the “Adenosine non-selective @ 10 μM (inhibition of [3H]-NECA binding)” value with adenosine receptor is on record as 27.52%.
Consider `CN1C(=O)CN=C(c2ccccc2)c2cc(Cl)ccc21` [Diazepam, diazepam], for which the “Duration of tonic seizure Mean ± SEM” value with Male Swiss mice (20 mg/kg) came to 1.8 ± 0.7 s.
Consider `CCC1C(C)=NN=C(c2ccc(OC)c(OC)c2)c2cc(OC)c(OC)cc21` (stereo not drawn) [tofisopam], for which, in the assay with central BZ receptors, the “interaction with central BZ receptors” value was “does not interact”. For the same molecule, the “binding to peripheral BZ receptors” value at peripheral BZ receptors was “binds only weakly”.
Usually pKi stands for the negative decadic logarithm of the Ki, by convention in mol/L. A high value points to a small Ki. Turning to Pinane-thromboxane, the pKi at TXA2 receptor (competitor in the [3H]SQ 29,548 binding assay) was 6.83.
